Test results taken from patent US20090023784A1, “USE OF DEFERIPRONE AND METHODS TO TREAT AND/OR PREVENT FRIEDREICH ATAXIA RESULTING FROM INTRACELLULAR MISHANDLING OF IRON” (priority 2006, published 2009).

Assay: Serum deferiprone time-concentration profile (HPLC) in the 52-week monkey study
Format: in vivo, cynomolgus monkeys
Conditions: 75 mg/kg twice daily
Experimental: Groups of 4 male and 4 female monkeys (2 to 3 years old) were dosed by nasogastric intubation at (0.5% w/v aqueous carboxymethylcellulose vehicle) 75 mg/kg deferiprone twice daily (bid), with 6-8 hours between doses, for at least 364 days.
Clinical signs, body weights and food intake were assessed at frequent intervals. Ophthalmological and cardiovascular examinations were carried out in Weeks 17, 30, 43, 56 and 60. Hematology, coagulation, clinical chemistry and urine parameters were measured at baseline and in Weeks 8, 16, 30, 41, 56 and 60. Blood samples were taken on the first day of dosing, and in Weeks 17 and 56 for assessment of the serum deferiprone time-concentration profile. A full necropsy was performed on each animal, selected organs weighed, and histopathological examination of abnormalities and selected tissues conducted.

Q: Which results are given for `Cc1c(O)c(=O)ccn1C` [Deferiprone, 3-hydroxy-1,2-dimethylpyridin-4-one]?
A: peak concentration relative to thalassemia patients treated with 25 mg/kg three times daily: about three times; deferiprone detectable in serum for up to (HPLC): up to 7 h; deferiprone detectable in serum from (time after dosing) (HPLC): ≥ 0.5 h; half-life (both sexes, cynomolgus monkey, serum, oral, range in individuals): 0.35 to 2.39 h
